According to patent US9387186B2, “Thiourea derivatives” (priority 2014, dated 2016):
Like-named read-outs stand apart in the source and are kept apart here.

Assays:
Assay type in all cases: cell-based, Staphylococcus aureus
[1] = system: EMRSA-16; test: Reversal of multi-drug resistance (MIC / FIC, Alamar blue); conditions: for MIC of antibiotic in combination: antibiotic in combination of compounds I and II
Description: (§1) Fixed concentration of compounds I and II and increasing concentration of antibiotics (drugs) were made in 96-well plates. 5×10^5 multidrug resistant S. aureus cells were added in each well and incubated for 20-24 hours. No test compounds and antibiotics were present in control wells Inhibition and growth were noted both visually and by using the dye Alamar blue. FIC of Antibiotic a (FICa)=MIC of Antibiotic a in combination/MIC of Antibiotic a alone FIC of Compound b (FICb)=MIC of Compound b in combination/MIC of Compound b alone
(§2) The sum of Fractional Inhibitory Concentration (FICs) index of (FICa)+(FICb)=(FICs). Fractional inhibitory concentrations were calculated by the above cited formula. (The FIC values of compounds I and II are available (FIGS. 4A and 4B). Protocol of Chung et al. (2011), with slight modifications, was followed for above discussed reversal resistance assay.

[2] = system: EMRSA-17; test: as above
Description: as §1, §2

[3] = system: EMRSA-17; test: High throughput screening assay (MABA) against MDR S. aureus; conditions: for activity in MABA (in words): summary of Table 1
Description: (§3) In growth medium (Muller Hinton broth), the pure isolated colonies were inoculated and incubated at 37° C. for 20-24 hours. After 20-24 hours, the turbidity was checked and adjusted to 0.5 McFarland standards.
(§4) For this assay, the stock solutions of 1 mg/mL concentration of compounds (I and II) were made by using DMSO. 96-Wells sterile, flat bottom micro titer plates were used with proper labeling, 20 μg/mL of both compounds were added in first wells and made two fold serial dilutions by using sterile broth. The cells suspensions (conc. 5×10^5) were then added in each wells, finally the volume was made up with broth up to 200 μL in each well. The plate was sealed and incubated at 37° C. for 20-24 hours. Experiments were carried out in triplicate manner. After incubation of 20-24 hours, Alamar Blue Dye was added (10%) to the culture volume and kept the plates on shaking incubator at 37° C. for 3 to 4 hours. Change in color was then assessed visually and qualitatively. Quantitative analysis was recorded by taking absorbance at 570 and 600 nm by a spectrophotometer.
(§5) The above mentioned protocol was followed by the method reported by Sarkar et al., (2007) with slight modifications.
(§6) Percentage reduction and inhibition of Alamar blue dye was calculated by using the following formulas:
(§7) [formula] Where, • εox=molar extinction coefficient of Alamar blue oxidized form (blue) • εred=molar extinction coefficient of Alamar blue reduced form (pink) • A=absorbance of test wells • A′=absorbance of negative control well • λ1=570 nm • λ2=600 nm
(§8) Here control wells contain only media plus Alamar Blue, while the test wells contain both Alamar Blue with the test compounds.
(§9) [formula] Where, • εox=molar extinction coefficient of Alamar blue oxidized form (blue) • A=absorbance of test wells • A°=absorbance of positive growth control well • λ1=570 nm • λ2=600 nm
(§10) Here control wells contain cells+media+Alamar Blue, while the test wells contain both Alamar Blue with the test compounds+cells (The percent inhibitions are available in Table 1).

[4] = system: EMRSA-16; test: as above; conditions: for activity in MABA (in words): summary of Table 1
Description: as §3, §4, §5, §6, §7, §8, §9, §10

[5] = system: MRSA 252; test: as above; conditions: for activity in MABA (in words): summary of Table 1
Description: as §3, §4, §5, §6, §7, §8, §9, §10

[6] = system: Clinical Isolates; test: as above; conditions: for activity in MABA (in words): summary of Table 1
Description: as §3, §4, §5, §6, §7, §8, §9, §10

[7] = system: EMRSA-16 and -17; test: Reactive oxygen species (O2-) production, lucigenin CL assay; conditions: 25, 50 and 100 μg/mL; lucigenin chemiluminescence
Description: Assay Protocol: 5×10^5 Cells were incubated with the different concentrations of compounds (25, 50 and 100. μg/mL), leucigenin and filtered phosphate buffer saline. For the triggering of reaction, DMSO was added to the each well at the time of RLU determination. No test compounds were added in positive control but it contained DMSO, while no test compound and DMSO were added in negative control. Chemiluminescence (CL) was determined at room temperature by luminometer. The light emission results were measured in relative light unit (RLU). Protocol of above discussed protocol was followed by the method of Albesa et al (2002) with slight modifications.

[8] = system: EMRSA-16 and -17; test: Inhibition of MDR efflux pumps, EtBr accumulation flow cytometry; conditions: combinations with antibiotics, 3 hrs; FL-2 channel
Description: Assay Protocol: Different combinations of compounds I and II with antibiotics, and antibiotic alone, were made and incubated with bacterial cells for 3 hrs. After incubation cells were stained with ethidium bromide. Both the control and treated cells were centrifuged for 3 mins at 13,000 rpm. The pallet was washed with PBS. Negative control was free from ethidium bromide (EtBr), while positive control contains (EtBr). By using FL2 channel, FACS analyses were carried out. Protocol of Kalle et al. (2009) was employed with some modifications.
Flow cytometry data acquisition: For data acquisition and analysis Cell Quest software (BD) were used. A total number of 50,000 cells were counted. EtBr fluorescence was detected through (FL-2 channel).

[9] = system: EMRSA-16 and -17; test: Membrane potential and integrity, DiBAC4(3) flow cytometry; conditions: 20 μg/mL, 20-24 h; DiBAC4(3) fluorescence FL1
Description: 20 μg/mL of compounds I and II were tested against 5×10^5 multidrug resistant S. aureus cells and incubated for 20-24 hours, while cells without compounds were taken as a control. Stock solution (1 mg/mL) for the membrane potential probe DiBAC4(3) was made in absolute ethanol and stored at −20° C. 1 mL of exponentially growing S. aureus were taken from broth cultures and centrifuged at 11,000 rpm for 2 mins Supernatant was discarded and cells pallets were dissolved in 4 mL of filtered phosphate-buffered saline (PBS). Final 10 μg/mL conc. of fluorogenic substrates DiBAC4 were adjusted in 4 mL volume. The stained cell suspension was incubated at 37° C. for 30 min. Before flow cytometric analysis, cells were washed in PBS buffer by centrifugation. The above mentioned protocol was adapted from the procedures of Jepras et al. (1997) with slight modifications. Assays were performed by using Becton Dickinson FACSCaliber™ flow cytometer (USA). A total of 50,000 cells were counted by using Cell Quest software (BD) for data acquisition and analysis. DiBAC4(3) was detected as green fluorescence in the channel FL1 (Veal et al., 2000).

[10] = Staphylococcus aureus, EMRSA-17, substance alone, read-out: MIC
[11] = Staphylococcus aureus, 20 μg/mL, Alamar blue, 20-24 h

Q: For `O=C(O)c1cn(C2CC2)c2cc(N3CCNCC3)c(F)cc2c1=O` [ciprofloxacin], which “MIC of antibiotic in combination” value [1] is on record?
A: 4 µg/mL

Q: `Cc1cc(NS(=O)(=O)c2ccc(N)cc2)no1` [sulfamethoxazole] was tested. Which “interaction of antibiotic with compounds (FIC)” value ([2]; EMRSA-17, with both compounds I and II) did it give?
A: indifference effect

Q: And the MIC [2, 10]?
A: 2080 µg/mL

Q: With `NC(N)=O` [Urea, Carbamide, carbonyl diamide, carbonyldiamine, Diaminomethanal] as the compound, how does the “activity in MABA (in words)” value ([3]; 20 μg/mL) read?
A: resistant

Q: And the “% Inhibition 20 μg/mL EMRSA-17” value ([3]; Alamar blue, 20-24 h)?
A: No Inhibition

Q: And the “activity in MABA (in words)” value ([4]; 20 μg/mL)?
A: resistant

Q: And the “% Inhibition 20 μg/mL EMRSA-16” value ([4]; Alamar blue, 20-24 h)?
A: No Inhibition

Q: What about the “% Inhibition 20 μg/mL MRSA 252” value ([5]; 20 μg/mL, Alamar blue, 20-24 h) of the same compound?
A: No Inhibition

Q: And the “activity in MABA (in words)” value [5]?
A: resistant

Q: And the “% Inhibition 20 μg/mL Clinical Isolates” value ([6]; 20 μg/mL, Alamar blue, 20-24 h)?
A: No Inhibition

Q: What about the “activity in MABA (in words)” value [6] of the same compound?
A: resistant

Q: Which “MIC of antibiotic in combination” value [1] does the source give for `O=C(N[C@H](CO)[C@H](O)c1ccc([N+](=O)[O-])cc1)C(Cl)Cl` [chloramphenicol] here?
A: 16 µg/mL

Q: What does the source list for gentamicin?
A: MIC ([2]; EMRSA-17, substance alone): 1024 µg/mL; MIC of antibiotic in combination [1]: 8 µg/mL

Q: How did the “activity in MABA (in words)” value ([3]; 20 μg/mL) turn out when Thiocarbamide [Thiourea] was run?
A: resistant

Q: What about the “% Inhibition 20 μg/mL EMRSA-17” value ([3]; Alamar blue, 20-24 h) of the same compound?
A: No Inhibition

Q: What about the “activity in MABA (in words)” value ([4]; 20 μg/mL) of the same compound?
A: resistant

Q: And the “% Inhibition 20 μg/mL EMRSA-16” value ([4]; Alamar blue, 20-24 h)?
A: No Inhibition

Q: And the “% Inhibition 20 μg/mL MRSA 252” value ([5]; 20 μg/mL, Alamar blue, 20-24 h)?
A: No Inhibition

Q: What about the “activity in MABA (in words)” value [5] of the same compound?
A: resistant

Q: And the “% Inhibition 20 μg/mL Clinical Isolates” value ([6]; 20 μg/mL, Alamar blue, 20-24 h)?
A: No Inhibition

Q: And the “activity in MABA (in words)” value [6]?
A: resistant

Q: With `NCC[C@H](O)C(=O)N[C@@H]1C[C@H](N)[C@@H](O[C@H]2O[C@H](CN)[C@@H](O)[C@H](O)[C@H]2O)[C@H](O)[C@H]1O[C@H]1O[C@H](CO)[C@@H](O)[C@H](N)[C@H]1O` [amikacin] as the compound, how does the MIC ([2]; Staphylococcus aureus) read?
A: 256 µg/mL

Q: What about the “MIC of antibiotic in combination” value [1] of the same compound?
A: 4 µg/mL

Q: With `CCC[C@@H]1C[C@@H](C(=O)N[C@@H]([C@H]2O[C@H](SC)[C@H](O)[C@@H](O)[C@H]2O)[C@H](C)Cl)N(C)C1` [clindamycin] as the compound, how does the MIC [2, 10] read?
A: 4100 µg/mL

Q: What about the “MIC of antibiotic in combination” value [1] of the same compound?
A: 32 µg/mL

Q: With `Cc1onc(-c2ccccc2)c1C(=O)N[C@@H]1C(=O)N2[C@@H]1SC(C)(C)[C@@H]2C(=O)O` [oxacillin] as the compound, how does the MIC [2, 10] read?
A: 2050 µg/mL

Q: And the “MIC of antibiotic in combination” value [1]?
A: 16 µg/mL

Q: Which MIC ([2]; EMRSA-17, substance alone) does the source give for neomycin here?
A: 512 µg/mL

Q: And the “MIC of antibiotic in combination” value [1]?
A: 8 µg/mL

Q: What does the source list for penicillin?
A: MIC ([2]; EMRSA-17, substance alone): 1024 µg/mL; MIC of antibiotic in combination [1]: 8 µg/mL

Q: How did the “production of reactive oxygen species (O2-)” value [7] turn out when `COc1cccc(NC(=S)Nc2cccc(Cl)c2)c1` [II, N-(3-Chlorophenyl)-N-(3methoxyphenyl) thiourea] was run?
A: generation of O2^− in MDR cells were detected

Q: What about the “inhibition of efflux pump (EtBr accumulation)” value [8] of the same compound?
A: excellent capacity to inhibit the bacterial efflux pump mechanism

Q: And the MIC [2, 10]?
A: 25 µg/mL

Q: And the MIC ([1]; Staphylococcus aureus, substance alone)?
A: 52 µg/mL

Q: What about the “activity in MABA (in words)” value ([3]; 20 μg/mL) of the same compound?
A: active

Q: And the inhibition at 20 µg/mL [3, 11]?
A: 82.6%

Q: What about the “activity in MABA (in words)” value ([4]; 20 μg/mL) of the same compound?
A: active

Q: What about the inhibition at 20 µg/mL [4, 11] of the same compound?
A: 50.1%

Q: What about the inhibition at 20 µg/mL [5, 11] of the same compound?
A: 14.8%

Q: What about the inhibition at 20 µg/mL [6, 11] of the same compound?
A: 19.6%

Q: What about the “effect on membrane potential and integrity” value [9] of the same compound?
A: depolarization and the disruption of cytoplasmic membrane
